These results are taken from article PMC7367369, “A small library of chalcones induce liver cancer cell death through Akt phosphorylation inhibition” (Scientific Reports, 2020).

Assay [1] relates to dental pulp stem cells (DPSC). The assay is described as follows: NCI-60 sulforhodamine B (SRB) cytotoxicity assay, dental pulp stem cells. Format: cell-based, human. The following applies: Homo sapiens; SRB, 72 h, 2.5–40 μM, triplicate; untransformed control cells; read-out: IC50 DPSC. The procedure: The bioactivities of the synthesized chalcones were assessed on human liver cancer cell lines and on DPSCs with NCI-SRB assay in vitro. DPSCs used to asses the bioactivity of chalcones on untransformed control cells with the potential of hepatic lineage. […] We also included 5-Fluorouracil which is used in clinics for gastrointestinal cancers and Sorafenib. All results were normalized to DMSO negative control measurements. The experiment was performed in triplicate.
Dental pulp stem cells (DPSCs) were isolated from anonymised unidentified healthy intact wisdom tooth. DPSCs were isolated within few hours upon wisdom teeth surgery from patients above 18 years old. All were informed about the procedures, and their consents were obtained. Teeth were broken carefully in order to reach the dental pulp area. […] Then, the cells were seeded onto flasks in 10ml DMEM-F12 media (Lonza) supplemented with 1% penicillin/streptomycin solution (Hyclone) and 15% FBS (Fetal Bovine Serum,Hyclone, Logan, UT, USA) and cultured in a 5% CO2 incubator at 37^∘C .
Primary liver cancer cells Huh7, HepG2, Hep3B, Mahlavu, FOCUS, Snu475 along with hepatic progenitor Dental pulp stem cells were seeded into 96-well plates (1,000–3,000 HCC cell/well and 10,000 cells DPSC/well ) for 24 h. The cells were then treated with increasing concentrations of the chalcones ( 2.5-40μM ). DMSO (AppliChem Biochemica, Darmstadt, Germany) was used as negative control. The growth has stopped at the end of 72 h by fixing cold with 10% (v/v) trichloroacetic acid (Merck, Schuchardt, Germany). Cells were then stained with 0.4% (m/v) of sulforhodamine (Sigma-Aldrich, St. Louis, USA) in 1% acetic acid solution. […] All experiments were done in triplicate.

Assay [2] concerns Huh7. The assay is described as follows: Real-time cell electronic sensing (RT-CES) growth analysis, Huh7. The format is cell-based. To be noted: Homo sapiens, Huh-7. The procedure: The selected 3 compounds were further analyzed with real-time cell electronic sensing (RT-CES) system to assess the real-time growth behavior of the cells treated with the compounds. Huh7 and Mahlavu liver cancer cells were treated with the selected chalcones and monitored with RT-CES. Results of the compounds were normalized to data of negative control DMSO.
Figure 2 Real-time cell growth analysis. Human liver cancer cells Huh7 (left panel) and Mahlavu (right panel) were treated with the selected compounds. Cell index measurements were obtained by RT-CES software. DMSO was used as negative control. (A) The growth inhibition values of the compounds were obtained by the normalization with DMSO. Experiments were performed in triplicate. (B) IC50 values calculated from RT-CES experiment data. TEXT PRINTED IN THE PICTURE: (B) 1: Huh7 24h: 3.7; Huh7 72h: 5.2; Mahlavu 24h: 1.2; Mahlavu 72h: 2.3 | (B) 9: Huh7 24h: 16.1; Huh7 72h: 11.5; Mahlavu 24h: 4.9; Mahlavu 72h: 6.8 | (B) 11: Huh7 24h: 8.7; Huh7 72h: 8.8; Mahlavu 24h: 4.9; Mahlavu 72h: 6.8 DOUBTS OF THE COPYIST ABOUT THIS PICTURE: Panel B table: the picture prints no measure and no unit for the values
Huh7 and Mahlavu cells were inoculated into the e-plate (1000–2000 cells/well). The attachment, spreading, and proliferation of the cells were monitored every 30 minutes using the Xcelligence® Real-Time Cell Analysis system (ACEA Biosciences Inc.) in a cell culture incubator. […] When cells reach to an cell index (CI) impedance values about 1.5 usually in 24 hours cells were treated with the chalcones 1, 9 and 11. DMSO was used as a negative control. Each experiment was repeated three times. The CI value was noted every 10 minutes for the first 24 hours and then every 30 minutes upon chalcone treatments. The cell inhibition rate calculated as follows (%)=[1-(CItreatedcells/CIDMSO)]×100 .

For assay [3], the system named is Mahlavu and Huh7 cells. The assay is described as follows: Cell cycle analysis (propidium iodide). The format is cell-based, human. To be noted: Mahlavu and Huh7, IC50 concentrations, 72 h. The procedure:
Human liver cancer cells Mahlavu and Huh7 were treated with the compounds according to the IC50 values obtained from RT-CES experiments or DMSO controls for 72hr. […] We further assessed the effects of the selected chalcones 1, 9, and 11 on the cell cycle progression analysis of liver cancer cells. Human liver cancer cells Mahlavu and Huh7 were treated with the compounds according to the IC50 values obtained from RT-CES for 72 h. Then the DNA in the treated cells were stained with propidium iodide and analyzed with fluorescent-activated cell sorter. […] In order to confirm the induction of apoptosis in human liver cancer cells treated with the chalcones, cleavage of PARP protein (marker of apoptosis) was investigated.
Figure 3 Cell death induced by the chalcones. (A) Nuclear staining of the liver cancer cells treated with the chalcones. Human liver cancer cells (Huh7 and Mahlavu) were treated with the IC50 concentrations of the chalcones 1, 9, 11. After 72 h of incubation with the compounds or DMSO control, Hoechst (33258) staining was performed. Images were taken with fluorescent microscope (×40). Due to the strong cytotoxic activities of the chalcones the number of the cells in objective area was much less than DMSO controls. (B) Cell cycle distribution of liver cancer cells. Huh7 and Mahlavu cells were treated for 72 h with IC50 concentrations of the compounds or DMSO control. SubG1 cell cycle arrest was observed upon treatment with the compounds (blue). (C) Investigation of PARP cleavage in Huh7 and Mahlavu cells treated with the selected chalcones for 24 h.
Then samples were stained with propidium iodide which binds to DNA and analyzed with MUSE® Cell Cycle Assay Kit (EMD Milipore).

In assay [4] the test system is pAkt (Ser473) in Mahlavu cells. The assay is described as follows: Western blot, phosphorylated Akt levels. To be noted: IC50 concentrations (Fig. 2), 24 h. Format: cell-based, human. The procedure: Figure 4 Proteins targeted by the compounds. Human liver cancer cells (Mahlavu) were treated with the IC50 concentrations of the selected compounds or DMSO control for 24 h. […] (B–D) Quantification of the results using ImageJ software. (E) Schematic representation of the molecular mechanism of action of the compounds. Blocked signaling is crossed.
In order to investigate the significant bioactivity of the chalcones 1, 9 and 11 on human liver cancer cell line Mahlavu which has an hyperactive PI3K/Akt pathway due to PTEN-deficiency[13], we analyzed the effect of the chalcones on the active phosphorylated Akt levels in this cell line.
Poorly differentiated liver cancer cell line Mahlavu cells were cultured in 100 mm culture dish for 24 h. […] Anti-PARP antibody (Cell Signaling, 9532), pAkt (Ser473) antibody (Cell Signaling, 9271), Akt antibody (Cell Signaling, 9272), pNFkB-p65 (Ser468) antibody (Snat Cruz, sc101750), p21 antibody (Millipore, 05345), pRb (Ser807/811) antibody (Cell Signaling, 9308), Rb antibody (Santa Cruz, sc102), actin antibody (Sigma, A5441) and calnexin antibody (Sigma, C4731) were used as primary antibodies. Anti-rabbit (6154) and anti-mouse (0168) secondary antibodies were used. ImageJ tool ([42]) used for protein band intensity comparison. Original Full length blots are given as Supplementary Information.
(In general: A western blot detects proteins with antibodies after separation by electrophoresis.)

Where [5] appears, read: Huh7, 24h, read-out: IC50 values calculated from RT-CES experiment data, Huh7 24h.
[6] abbreviates: Huh7, 72h, read-out: IC50 values calculated from RT-CES experiment data, Huh7 72h.

Like-named read-outs stand apart in the source and are kept apart here.

Broadly, the IC50 is the concentration that gives 50% inhibition.

Take `O=C(/C=C/c1ccc(Cl)cc1)c1ccccc1` [compound 11]: the IC50 in assay [1] is 19.1 µM; in assay [2] (setting [5]), 8.7 µM; in assay [2] (setting [6]) it was 8.8 µM. Also, the cell cycle progression entry in assay [3] is on record as “induced SubG1 cell cycle arrest”. Also, the “levels of pAkt” value in assay [4] is listed as “decrease in the levels of pAkt”.
On to `O=C(/C=C/c1ccccc1)c1ccccc1` [compound 9], for which the results for the half-maximal inhibitory concentration (IC50) in assay [1], in assay [2] (setting [5]) and in assay [2] (setting [6]) were 25.7 µM, 16.1 µM and 11.5 µM, respectively. For the same compound, the cell cycle progression entry in assay [3] is recorded as “induced SubG1 cell cycle arrest”. Also, the “levels of pAkt” value in assay [4] is on record as “decrease in the levels of pAkt”.
Consider `COc1ccc(C(=O)/C=C/c2cccc([N+](=O)[O-])c2)cc1` [compound 1], for which the IC50 in assay [1] is above 40 µM; in assay [2] (setting [5]), 3.7 µM; in assay [2] (setting [6]) it was 5.2 µM. Also, the cell cycle progression entry in assay [3] was “induced SubG1 cell cycle arrest”. The “levels of pAkt” value in assay [4] is recorded as “decrease in the levels of pAkt”.
